# Test results from patent US8680153B2, “Method for correcting a lipid imbalance in a subject” (The Royal Institution for the Advancement of …, priority 2005, dated 2014).
# Values joined by “and” are separate entries in the source; they are usually repeats but may differ in a detail not shown here. Equal values may be shown once.
# Legend:
# ceramide levels = experiment: Ceramide levels by ELISA in lung and plasma of uninfected mice, fenretinide diet supplementation; type: in vivo; conditions: 5 mg/kg per day in diet, 28 days, 5 mg/kg/day
# From the text: Animals. Inbred C57BL/6-Cftr mice breeding pairs, heterozygous (HZ) at the Cftr locus, were used. All babies were genotyped between days 12 and 14 of their life. The animals were kept in cages with sterile corn bedding (Anderson, Bestmonro, La.) and maintained in ventilated racks (Lab Products). Mice were fed with either the NIH-31-modified irradiated mouse diet (Harlan Teklad, Indianapolis, Ind.) or a liquid diet starting at 14 days of age (Peptamen liquid diet; Nestle Canada, Brampton, ON). The liquid diet were freshly prepared every morning and provided in 50-mL centrifuge tubes (Fisher Scientific Ltd, Nepean, ON). Age- and gender-matched C57BL/6-Cftr+/+ (wild-type) mice, (female; n=10, male; n=31) and C57BL/6-Cftr−/− (Cftr-KO) mice (female; n=8, male; n=18) were murine pathogen-, Helicobacter- and parasite-free. They were housed (1-4 animals/cage), bred and maintained in a barrier facility unit under specific pathogen-free conditions. Experimental procedures with the mice were conducted in accordance with the Canadian Council on Animal Care guidelines and with the approval of the Animal Care Committee of the McGill University Health Center, Montreal, Quebec, Canada.
# Fenretinide Diet Supplementation. Examples 2 to 6: fenretinide (Sigma-Aldrich, Oakville, ON) powder was resuspended in 95% ethanol and subsequently incorporated in the Peptamen liquid diet. It was protected from light and kept at 4° C. before being given to the mice (5 mg/kg per day per mouse). Mock-treated diets were prepared similarly by adding ethanol to the Peptamen diet but omitting the fenretinide supplementation. The diet was given every morning for 28 consecutive days with specific monitoring of the quantity consumed by the mice in each cage. Examples 7 to 12: fenretinide powder was kindly provided by Dr. Robert Smith (NIH; Bethesda, Md., USA). Fenretinide was resuspended in 95% ethanol to make a 2 μg/μL concentration. Approximately 40 μL of this preparation was incorporated into the Peptamen liquid diet (5 mg/kg per day per mouse). The prepared food containing fenretinide was then stored in the dark at 4° C. for no more than 3 hours prior to being administered to the mice. To ensure that the entire drug dose was consumed, the mice were given 10 mL of fenretinide-treated Peptamen, which represents ⅔ of the daily mouse food consumption, in the late afternoon. The remaining 5 mL of Peptamen (without fenretinide) was given the following morning. Mice were treated twice a week for 4 weeks. During the treatment period each mouse was kept in a separate cage (including WT mice) and was monitored to ensure that the entire amount of Peptamen containing the fenretinide or with out was consumed. The diet for the mock-treated control group was prepared and administered similarly to that described above, by adding the same volume of ethanol to the Peptamen diet but omitting the fenretinide supplementation.
# Ceramide/Sphingolipids analysis. The concentration of ceramide in the (lung, liver, ileum, pancreas homogenates) and plasma from mice and humans were determined by ELISA^39;40 on separated lipids samples by thin layer chromatography, as described above. The phospholipids from the dry silica were resuspended in ethanol and used to coat Nunc plates specific for lipid binding. Plates were then washed, incubated with blocking buffer for 1 hr at 37° C. […]
# [1] = system: DHA levels, DHA/AA ratio, ceramide levels, AA levels; experiment: Systemic lipid parameters in several organs, biweekly treatment for 4 weeks; type: in vivo, mice; conditions: four-week biweekly treatment
# Description: Fenretinide Diet Supplementation. Examples 2 to 6: fenretinide (Sigma-Aldrich, Oakville, ON) powder was resuspended in 95% ethanol and subsequently incorporated in the Peptamen liquid diet. It was protected from light and kept at 4° C. before being given to the mice (5 mg/kg per day per mouse). Mock-treated diets were prepared similarly by adding ethanol to the Peptamen diet but omitting the fenretinide supplementation. The diet was given every morning for 28 consecutive days with specific monitoring of the quantity consumed by the mice in each cage. Examples 7 to 12: fenretinide powder was kindly provided by Dr. Robert Smith (NIH; Bethesda, Md., USA). Fenretinide was resuspended in 95% ethanol to make a 2 μg/μL concentration. Approximately 40 μL of this preparation was incorporated into the Peptamen liquid diet (5 mg/kg per day per mouse). […] During the treatment period each mouse was kept in a separate cage (including WT mice) and was monitored to ensure that the entire amount of Peptamen containing the fenretinide or with out was consumed. […]
# Ceramide/Sphingolipids analysis. The concentration of ceramide in the (lung, liver, ileum, pancreas homogenates) and plasma from mice and humans were determined by ELISA^39;40 on separated lipids samples by thin layer chromatography, as described above. […]
smiles,measurement,setting,value
"CC1=C(/C=C/C(C)=C/C=C/C(C)=C/C(=O)Nc2ccc(O)cc2)C(C)(C)CCC1 [fenretinide, all-trans-N-(4-hydroxyphenyl) retinamide]","Ceramide levels, fold-increase (FEN-treated over CTRL), Lung",ceramide levels; Cftr-KO mice,7.0 fold and 7.0 (n = 3) fold
same,"Ceramide levels, fold-increase (FEN-treated over CTRL), Plasma",ceramide levels; Cftr-KO mice,6.9 fold and 6.9 (n = 3) fold
same,"Ceramide levels, fold-increase (FEN-treated over CTRL), Lung",ceramide levels; HZ mice,2.1 fold and 2.1 (n = 3) fold
same,"Ceramide levels, fold-increase (FEN-treated over CTRL), Plasma",ceramide levels; HZ mice,2.7 fold and 2.7 (n = 3) fold
same,"Ceramide levels, fold-increase (FEN-treated over CTRL), Lung",ceramide levels; WT mice,1.4 fold and 1.4 (n = 10) fold
same,"Ceramide levels, fold-increase (FEN-treated over CTRL), Plasma",ceramide levels; WT mice,1.6 fold and 1.6 (n = 12) fold
same,"Defect/imbalance in DHA levels, DHA/AA ratio and ceramide levels in all organs",[1]; Cftr-KO and HZ mice,"effective at correcting, at least partially"
same,"AA levels in control organs (heart, kidney and spleen)",[1]; Cftr-KO mice,decreases the AA levels to normal
